Measurements published in patent US9023853B2, “Janus kinase 2 (JAK2) inhibitor for the treatment of lupus” (Cephalon, Inc., priority 2010, dated 2015).

Legend:
Type in all cases: in vivo, mouse
[1] = system: anti-Smith antigen antibodies; experiment: Serum anti-Smith antigen ANA ELISA in NZM mice; conditions: p<0.05
Source text: The measurement of anti-dsDNA and anti-Smith antigen antibodies was done by an in-house generated custom ELISA assay. Chromatin coated plates were purchased from Inova Diagnostics, Inc. Purified bovine thymus dsDNA (Sigma, St. Louis, […].) or purified bovine Smith antigen (GenWay, San Diego, Calif.) were used as coating antigen for the detection of anti-dsDNA and anti-Smith Ag antibodies respectively. Coated plates were washed with Borate Sulfate Saline (BSS) and blocked with BSS containing 1% Bovine Serum Albumin (BSA) and 0.1% Tween-20 detergent. Standard curves were generated using mouse anti-chromatin antibody (Sigma, 2B1) or 25 week old MRL/lpr serum. Mouse anti-dsDNA antibody (Abcam, Cambridge, Mass.), or mouse anti-Smith antigen antibody (Abcam) were used as standards for each assay. […] Developed plates were read using a Victor-X4 spectrophotometer reading at […] with a reference wavelength of 570 nm. […]
Age mated, female, NZM or NZW/LacJ, mice were matured for the study of lupus nephritis for a total of 7 months or 210 days at which time urine was collected for proteinuria detection. Mice with 0.5-1.0 mg/ml of urine protein as determined by an optical density-based total protein precipitation assay and cross-checked for 30-300 mg/dl of protein as determined by a stick assay were considered proteinuria positive and selected for study entry. […]

IFNα = experiment: Serum IFNα at EOS in NZM mice; conditions: for serum IFNα decrease compared to vehicle: EOS
Procedure: Age mated, female, NZM or NZW/LacJ, mice were matured for the study of lupus nephritis for a total of 7 months or 210 days at which time urine was collected for proteinuria detection. Mice with 0.5-1.0 mg/ml of urine protein as determined by an optical density-based total protein precipitation assay and cross-checked for 30-300 mg/dl of protein as determined by a stick assay were considered proteinuria positive and selected for study entry. Groups were normalized to contain a Gaussian distribution of proteinuria positive animals (i.e., ⅓ low proteinuria, ⅓ medium, ⅓ high) then randomized between groups before ear marking and taking baseline measures including urine and serum collections. A total of five mice from the total population were randomly selected for baseline kidney histology evaluation. Treatments and tests for each group are as described in FIG. 12. Briefly, with a minimum of 10 mice per group, COMPOUND A was administered at 100 mg/kg or 55 mg/kg, both twice a day and orally. […] Vehicle included 3% DMSO, 10% Solutol and 87% PBS. […] End-stage lupus nephritis was evaluated by histopathology and scored by a board certified pathologist for the assessment of total renal damage in diseased animals using the scoring method described by Smith et al (Smith, Dong et al. 2007). […] Day-98 or “end of treatment/study” represents 310 days of age for the NZM animals.

plasma cells [2] = experiment: Spleen plasma cells by flow cytometry in NZM mice
Procedure: Antibodies used for flow cytometry consisted of anti-mouse CD138-APC (eBioscience, San Diego, Calif.), anti-mouse CD19-FITC (eBioscience, San Diego, Calif.), anti-mouse CD38-PE (eBioscience, San Diego, Calif.) and anti-mouse CD45R/B220-Cyc (eBioscience, San Diego, Calif.), Rat IgG1-APC isotype control (eBioscience, San Diego, Calif.), Rat IgG2a-PE isotype control (eBioscience, San Diego, Calif.). All samples were analyzed using an Accuri C6 Flow Cytometer. Complete media was used for all experiments involving the ex vivo culture of splenocytes for all Elispot experiments. Complete media consisted of RPMI1640 (Cellgro, Manassas, Va.), plus 1% Pen-Strep (Cellgro, Manassas, Va.), 1% L-Gln (Cellgro, Manassas, Va.), 1% NEAA (Cellgro, Manassas, Va.), β-ME (Cellgro, Manassas, Va.), plus 10% FBS (Cellgro, Manassas, Va.).
Washed, RBC-lysed splenocytes were stained for plasma cell markers as previously used in published reports (Neubert, Meister et al. 2008). As used herein the term “plasma cell” will refer to the following immunophenotype definition: Plasma cells were defined as live CD19-negative, CD45R/B220-negative, CD138-positive, CD38-positive events for the MRL/lpr model. A total of 200,000-500,000 events were collected per tube/sample. […]
Age mated, female, NZM or NZW/LacJ, mice were matured for the study of lupus nephritis for a total of 7 months or 210 days at which time urine was collected for proteinuria detection. Mice with 0.5-1.0 mg/ml of urine protein as determined by an optical density-based total protein precipitation assay and cross-checked for 30-300 mg/dl of protein as determined by a stick assay were considered proteinuria positive and selected for study entry. […] End-stage lupus nephritis was evaluated by histopathology and scored by a board certified pathologist for the assessment of total renal damage in diseased animals using the scoring method described by Smith et al (Smith, Dong et al. 2007). […]

plasma cells [3] = experiment: BrdU short-lived / long-lived plasma cells in spleen and bone marrow of NZM mice; conditions: 15 week old NZM mice, two weeks
Procedure: Twenty-four hours before the end of the study each mouse was injected i.p. with 2 mg of thymidine analog, bromodeoxyuridine (BrdU). BrdU (Cat#550891) and an anti-BrdU-FITC staining kit (Cat#559619) were obtained from BD Biosciences (Franklin Lakes, N.J.). Twenty-four hours after BrdU injection spleen and bone marrow were individually processed to isolate leukocytes for flow staining. Cells were surface stained with anti-CD19-Cyc, anti-CD38-PE and anti-CD138-APC (all obtained from eBioscience in San Diego, Calif.) as well as anti-BrdU-FITC (from the BrdU kit). Analysis included gating on live SSC/FSC populations, CD19-negative, CD38-positive and gating on CD138-positive, BrdU-negative (non-cycling, long-lived plasma cells, region R2) or BrdU-positive (cycling, short-lived plasma cells, region R1) as shown in FIG. 42. All samples were analyzed using an Accuri C6 Flow Cytometer. Complete media (R10) was used for all experiments involving the ex vivo culture of splenocytes for all Elispot experiments. […] The Figures depict spleen short-lived plasma cells (FIG. 38), bone marrow isolated short-lived plasma cells (FIG. 39), spleen long-lived plasma cells (FIG. 40), and bone marrow isolated long-lived plasma cells (FIG. 41). Also depicted are representative dot plots providing gating examples and short-lived plasma cells, R1, and long-lived plasma cells, R2, gates (FIG. 42). Graphs show mean±SEM, statistical test included two-tailed, Mann-Whitney t-test, *p<0.05 was considered significant. All events shown were originally size gated on live cells, graphs show CD19-negative, CD38/CD138-double positive populations that had either incorporated BrdU (cycling, thus short-lived plasma cells, see region R1) or not incorporated BrdU (non-cycling, thus long-lived plasma cells, see region R2).

Row | SMILES | anti-smith antigen ANAs ([1]; COMPOUND A treatment) | serum IFNα decrease compared to vehicle (IFNα; COMPOUND A 55 mg/kg) | serum IFNα decrease compared to vehicle (IFNα; COMPOUND A 100 mg/kg) | spleen plasma cells decrease compared to vehicle (plasma cells [2]; COMPOUND A 55 mg/kg) | spleen plasma cells decrease compared to vehicle (plasma cells [2]; COMPOUND A 100 mg/kg) | short lived plasma cells in the bone marrow (plasma cells [3]; 100 mg/kg orally b.i.d., FIG. 39) | long lived plasma cells in the bone marrow (plasma cells [3]; 100 mg/kg orally b.i.d., FIG. 41) | long lived plasma cells in the spleen (plasma cells [3]; all three doses (100, 55, 30 mg/kg) orally b.i.d., FIG. 40) | anti-smith antigen ANAs ([1]; CTX 50 mg/kg once weekly ip) | serum IFNα reduction (IFNα; CTX 50 mg/kg once weekly ip) | levels of spleen plasma cells (plasma cells [2]; cyclophosphamide 50 mg/kg once weekly ip)
1 | CN1CCN(c2cccc(Nc3nc4c(-c5ccc(S(C)(=O)=O)cc5)cccn4n3)c2)CC1 [COMPOUND A, [8-(4-methanesulfonyl-phenyl)-[1,2,4]triazolo[1,5-a]pyridin-2-yl]-[3-(4-methyl-piperazin-1-yl)-phenyl]-amine] | significantly reduced | 70.2% | 73.2% | 57.6% | 52.9% | impacted | impacted | impacted |  |  | 
2 | O=P1(N(CCCl)CCCl)NCCCO1 (centres unmarked) [CTX, cyclophosphamide, reference compound] |  |  |  |  |  |  |  |  | significantly reduced | Neither standard of care agent (i.e., CTX or DEX) exhibited a significant reduction | the decrease was not significant
